# Laboratory results reported in US12642791B2, “Inhibitors of lysyl oxidases” (UNIVERSITY OF SOUTH CAROLINA, priority 2021, dated 2026).
# B1: Simtuzumab: non-competitive LOXL2 targeting humanized monoclonal antibody (antibody, chains of the INN, looked up, V domains shown)
# VH: QVQLVQSGAEVKKPGASVKVSCKASGYAFTYYLIEWVRQAPGQGLEWIGVINPGSGGTNYNEKFKGRATITADKSTSTAYMELSSLRSEDTAVYFCARNWMNFDYWGQGTTVTVSS
# VL: DIVMTQTPLSLSVTPGQPASISCRSSKSLLHSNGNTYLYWFLQKPGQSPQFLIYRMSNLASGVPDRFSGSGSGTDFTLKISRVEAEDVGVYYCMQHLEYPYTFGGGTKVEIK
# Tests used:
# [1] = tested on: kidney fibrosis, lung fibrosis, myelofibrosis and pancreatic cancer models; conditions: in vivo; cited from earlier work
# [2] = human, in vivo; cited from earlier work
# [3] = tested on: cellular lysyl oxidase (LOX) activity, MDA-MB-231 cells; assay: Cell-based lysyl oxidase activity assay (Abcam kit); parameters: species or system human; conditions: read-out: cellular LOX activity
# From the text: As the available LOX inhibitors are either not very potent or have toxicity, the inventors developed a robust screening pipeline shown in FIG. 28 to identify potent and safe LOX-specific and pan-LOX inhibitors. Briefly, a high-throughput cell-based LOX activity (Abcam) screen (HTS) was done for more than 5,000 drug-like compounds from the EXPRESS-Pick diversified library (4,480 molecules, ChemBridge) and Tocriscreen library of bioactive compounds (1,280 compounds, Tocris), each at a single concentration of 10 μM. […] The toxic molecules were counter screened with cell cytotoxicity assay and filtered out.
# FIGS. 34. […] IC50 for cellular lysyl oxidase activity upon treatment of MDA-MB-231 cells with different LOX inhibitors. uM=microM.
# For cell-based lysyl oxidase activity, fluorometric Lysly Oxidase Activity Assay Kit (Abcam, USA) was used according to manufacturer's instructions. Briefly, after the treatment, 50 μl of supernatant from each well was incubated with reagent mix and fluorescence measured in multimode-reader at Ex/Em=540/590 nm wavelength.
# LOXL2 [4] = target: T1, LOXL2 (Homo sapiens, UniProt Q9Y4K0); conditions: cited from earlier work
# T1 sequence (Q9Y4K0 26-774): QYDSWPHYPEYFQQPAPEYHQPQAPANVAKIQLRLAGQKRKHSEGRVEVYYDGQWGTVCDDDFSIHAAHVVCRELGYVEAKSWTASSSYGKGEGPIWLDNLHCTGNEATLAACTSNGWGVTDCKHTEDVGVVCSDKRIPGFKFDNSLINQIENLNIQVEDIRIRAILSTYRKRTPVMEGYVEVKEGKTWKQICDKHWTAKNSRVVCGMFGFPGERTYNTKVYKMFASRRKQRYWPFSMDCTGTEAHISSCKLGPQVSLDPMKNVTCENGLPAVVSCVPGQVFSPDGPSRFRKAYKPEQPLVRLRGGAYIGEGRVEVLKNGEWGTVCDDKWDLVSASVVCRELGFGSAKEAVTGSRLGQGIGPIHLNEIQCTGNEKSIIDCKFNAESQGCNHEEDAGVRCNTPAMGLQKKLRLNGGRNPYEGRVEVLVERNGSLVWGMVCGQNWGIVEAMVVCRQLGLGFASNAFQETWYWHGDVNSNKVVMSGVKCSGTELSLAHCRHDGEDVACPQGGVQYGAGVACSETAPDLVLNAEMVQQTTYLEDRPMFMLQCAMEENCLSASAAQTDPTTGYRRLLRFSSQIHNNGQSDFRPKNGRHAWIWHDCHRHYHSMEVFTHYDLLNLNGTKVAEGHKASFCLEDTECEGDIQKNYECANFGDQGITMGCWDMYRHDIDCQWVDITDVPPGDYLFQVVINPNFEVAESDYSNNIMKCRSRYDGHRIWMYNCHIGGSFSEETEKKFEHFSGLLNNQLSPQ
# LOXL3 = LOXL3 (Homo sapiens, UniProt P58215); conditions: cited from earlier work
# [5] = tested on: LOXL2-mediated collagen oxidation and cross-linking; conditions: in vitro; cited from earlier work
# breast cancer models = conditions: daily by oral gavage, 70 mg/kg; cited from earlier work
# [6] = tested on: MDA-MB-231 cells embedded in collagen I; assay: ECM crosslinking by collagen and fibronectin immunofluorescence staining; format: cell-based, human
# Description: FIG. 31. […] A. Inhibition of LOX activity in MDA-MB-231 cells treated with 5 μM of the LOX inhibitors. B. Doxorubicin sensitization with 6232 and its analogs, 6403 and 6415, in 3D collagen-I culture. C. Collagen and fibronectin staining of vehicle or 6232 or 6403 or 6415-treated MDA-MB-231 cells embedded in collagen I. BAPN is used as a positive control.
# Immunofluorescence staining of cells was done in μ-Slide 8-well glass bottom chambers (Ibidi, Germany). Cells were fixed with 4% paraformaldehyde for 20 min, permeabilized with 0.5% Triton X-100 for 10 min and blocked in 5% BSA-PBS. Samples were incubated with primary (Collagen I, Fibronectin, F-actin, a-SMA) and secondary Alexa Fluor 647 or 488-labeled antibodies for 1.5 hours at room temperature. Cells were also counterstained with DAPI for 5 min. Images were acquired using ZEN 2012 SP5 (Black) LSM 700 (Carl Zeiss, DE).
# MCF12A = assay: Viability assay in normal cells; format: cell-based, human; conditions: normal breast cell line
# From the text: (§1) FIG. 32. 6232 derivatives, 6403 and 6415, show no cytotoxicity in normal cells. Viability assay in normal breast cell line, MCF12A, human foreskin fibroblast cell line, HFF and human endothelial cell line, HUVEC treated with 6403 or 6415.
# HFF = assay: Viability assay in normal cells; format: cell-based; conditions: human foreskin fibroblast cell line
# From the text: as §1
# HUVEC = assay: Viability assay in normal cells; format: cell-based; conditions: human endothelial cell line
# From the text: as §1
# LOXL2 [7] = target: T1, LOXL2; parameters: Simtuzumab only targets extracellular LOXL2; host or cells: pancreatic cancer patients; conditions: in combination with gemcitabine; cited from earlier work
# LOXL3, sequence (P58215 26-753, species assumed): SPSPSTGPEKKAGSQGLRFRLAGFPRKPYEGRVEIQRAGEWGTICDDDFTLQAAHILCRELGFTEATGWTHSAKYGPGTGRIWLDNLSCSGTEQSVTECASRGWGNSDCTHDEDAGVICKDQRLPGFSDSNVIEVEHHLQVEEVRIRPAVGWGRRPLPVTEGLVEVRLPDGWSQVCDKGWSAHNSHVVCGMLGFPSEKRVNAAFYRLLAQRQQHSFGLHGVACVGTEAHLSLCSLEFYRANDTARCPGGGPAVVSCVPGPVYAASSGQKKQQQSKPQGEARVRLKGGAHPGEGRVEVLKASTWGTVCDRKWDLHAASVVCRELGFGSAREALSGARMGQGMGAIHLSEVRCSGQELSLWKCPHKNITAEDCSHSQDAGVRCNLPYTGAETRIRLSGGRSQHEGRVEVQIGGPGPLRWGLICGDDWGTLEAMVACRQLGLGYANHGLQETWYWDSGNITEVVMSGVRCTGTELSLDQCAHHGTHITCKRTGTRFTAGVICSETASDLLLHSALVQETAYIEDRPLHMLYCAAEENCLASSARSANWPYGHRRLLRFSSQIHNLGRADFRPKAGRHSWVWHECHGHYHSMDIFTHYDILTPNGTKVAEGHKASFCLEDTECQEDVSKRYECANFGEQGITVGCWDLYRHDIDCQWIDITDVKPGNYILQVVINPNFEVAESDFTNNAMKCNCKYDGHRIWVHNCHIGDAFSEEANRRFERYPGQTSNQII
molecule,measurement,setting,value
NC/C=C(\F)CS(=O)(=O)c1cccc2cccnc12 [PXS-5505],fibrosis,[1],significant reductions in fibrosis
same,tolerability,[2],well tolerated
"COCCC(=O)Nc1ccc(Nc2nc(-c3sc(N)nc3C)cs2)cc1 [compound 6425, N-[4-[[4-(2-amino-4-methyl-thiazol-5-yl)thiazol-2-yl]amino]phenyl]-3-methoxy-propanamide]",IC50,[3],7.5 µM
Cc1c(-c2cccc(S(=O)(=O)N(C)C)c2)c2ncccc2n1C/C(F)=C/CN.Cl.Cl [PXS-5153A],enzyme inhibition,LOXL2 [4],complete and irreversible enzyme inhibition
same,enzyme inhibition,LOXL3,complete and irreversible enzyme inhibition
same,LOXL2-mediated collagen oxidation and cross-linking,[5],"reduce LOXL2-mediated collagen oxidation and cross-linking, in a dose-dependent manner"
CS(=O)(=O)c1cc(-c2ccccc2)cc(S(=O)(=O)c2ccc(CN)s2)c1 [CCT365623],metastasis,breast cancer models,reduced metastasis
same,tumor growth,breast cancer models,decreased tumor growth
"CCCCC(=O)Nc1ccc(Nc2nc(-c3sc(N)nc3C)cs2)cc1 [compound 6426, N-[4-[[4-(2-amino-4-methyl-thiazol-5-yl)thiazol-2-yl]amino]phenyl]pentanamide]",IC50,[3],2 µM
"Cc1nc(N)sc1-c1csc(Nc2ccc(S(N)(=O)=O)cc2)n1 [compound 6405, 4-((2′-amino-4′-methyl-[4,5′-bithiazol]-2-yl)amino)benzenesulfonamide]",ECM crosslinking (collagen and fibronectin staining),[6],decrease in ECM crosslinking
same,cell viability (cytotoxicity in normal cells),MCF12A,No significant effect on the viability
same,cell viability (cytotoxicity in normal cells),HFF,No significant effect on the viability
same,cell viability (cytotoxicity in normal cells),HUVEC,No significant effect on the viability
B1,clinical benefit,LOXL2 [7],minimal
same,tolerability,LOXL2 [7],well-tolerated
